From PMC11474028, “Lipopeptide antibiotics disrupt interactions of undecaprenyl phosphate with UptA” (Proceedings of the National Academy of Sciences of the …, 2024)
“Also recorded” adds a separate entry of the source.

Experiments:
[1] = tested on: B. subtilis strains bearing R112 and R118 mutations on UptA; settings: cited from earlier work
Description: Conserved arginine residues in the putative membrane reentrant loops of E. coli DedA proteins YqjA (R130) and YghB (R136) are important for the cellular role of these proteins ([36]). […] How these residues impact substrate interactions, however, is not known. […] Despite the combined cellular pool of C55-PP and C55-P being limited to ~1.5 × 10^5 molecules per cell ([56]), they mediate the transport of glycan-bearing components of the cell wall peptidoglycan, teichoic acid, and capsular polysaccharid ...

UptA = UptA (Bacillus subtilis, UniProt O31823); assay: Native MS of antibiotic binding to UptA; settings: 2.5 µM UptA, 10 µM C55-P, antibiotic up to 100 µM (polymyxins 100 µM), 0.05% LDAO, 200 mM ammonium acetate, 75 V
Method: We next investigate how UptA and its complex with C55-P interact with a range of cell-wall targeting antibiotics including the lipopeptides daptomycin and amphomycin. […] We investigated whether daptomycin affects C55-P binding to UptA by recording spectra for solutions containing 2.5 µM UptA, 10 µM C55-P, and different concentrations of daptomycin.
(§1) Amphomycin and derivatives are known to kill bacteria by forming complexes with free C55-P ([46]), however, whether or not this involves a direct interaction with a protein cellular target is not known. We therefore investigated how amphomycin affects the UptA:C55-P complex. We recorded spectra for solutions containing 2.5 µM UptA, 10 µM C55-P and then equilibrated aliquots with increasing concentrations of amphomycin.
The amphiphilic nature of daptomycin and amphomycin raises the possibility that these lipopeptide antibiotics may promiscuously bind to UptA in a nonspecific manner. We probe this possibility by recording spectra for UptA:C55-P solutions in the presence of 100 µM polymyxin B and 100 µM polymyxin E. These polymyxins are membrane-disrupting lipopeptides that target the outer membrane lipopolysaccharides in Gram-negative bacteria ([47]) but without a known affinity for C55-P or UptA.
To this end, we prepared UptA:C55-P mixtures and then equilibrated aliquots with bacitracin and vancomycin.
(§2) Detailed experimental procedures are provided in SI Appendix. Briefly, UptA (wild type and mutants) was expressed in E. coli C43(DE3) cells (Lucigen) with GFP fusion on the C-terminus and solubilized from the membrane fraction by n-dodecyl-β-D-maltopyranoside (DDM). After purification by affinity chromatography, the GFP was cleaved by TEV protease and removed, and UptA was further purified by size-exclusion chromatography in a buffer containing 20 mM Tris-HCl (pH 8.0), 200 mM NaCl, 0.02% DDM. Before measurements, proteins were buffer-exchanged into 0.05% LDAO, 200 mM ammonium acetate at the desired pH using a centrifugal buffer exchange device (Micro Bio-Spin 6, Bio-Rad). Stock solutions of lipids were prepared from chloroform/methanol solution by evaporating aliquots of known volume in a SpeedVac. After drying, the lipid films were weighed and resuspended to a final concentration of 0.5 mM in 200 mM ammonium acetate and 0.05% LDAO by vertexing. Stock solutions of 0.5 mM amphomycin, aspartocin D, daptomycin, polymyxin B, polymyxin E, and bacitracin were made in the same buffer. All experiments were repeated three times from newly prepared stock solutions. Native mass spectrometry was performed on a Q-Exactive hybrid quadrupole-Orbitrap mass spectrometer (Thermo Fisher Scientific, Bremen, Germany), and lipid identification was performed on an Orbitrap Eclipse Tribrid mass spectrometer (Thermo). […]

UptA:C55-P complex = assay: Native MS of UptA:C55-P complex in the presence of antibiotics; type: binding, Bacillus subtilis; settings: 2.5 µM UptA, 10 µM C55-P; for effect of antibiotic on UptA:C55-P complex (in words): 0 to 100 µM antibiotic, 75 V, mean of three independent replicates
Method: as §1
(A) Mass spectra (6+ charge state) for solutions containing 2.5 µM UptA and 10 µM C55-P incubated with 0 to 100 µM amphomycin. (B) Relative intensity of C55-P bound to UptA in the presence of amphomycin and daptomycin. The bar represents the mean of three independent replicates shown as data points and error bars are SD. […] (C) Fraction of C55-P bound to UptA in the presence of cell wall targeting antibiotics. Each sample contains 2.5 µM UptA, 10 µM C55-P and 100 µM of indicated antibiotic, and spectra were acquired using the same instrument settings and collisional activation of 75 V. The bar represents the mean of three independent replicates shown as data points, and the error bar represents SD. […]
as §2

[2] = ref 46 (ref 23, 46, 60, 61); cited from earlier work
Description: To this end, we prepared UptA:C55-P mixtures and then equilibrated aliquots with bacitracin and vancomycin. […] In line with the specificity of bacitracin for C55-PP rather than C55-P, this antibiotic modestly ...

Chain of UptA (O31823 whole entry): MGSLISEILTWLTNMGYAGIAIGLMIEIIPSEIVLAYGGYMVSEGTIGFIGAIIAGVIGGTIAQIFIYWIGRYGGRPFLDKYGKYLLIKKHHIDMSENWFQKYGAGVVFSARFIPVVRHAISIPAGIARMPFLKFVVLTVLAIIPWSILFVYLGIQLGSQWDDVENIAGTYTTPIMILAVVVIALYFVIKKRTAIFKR

amphomycin
susceptibility of B. subtilis cells with UptA R112 and R118 mutations (in words) [1]: more susceptible to inhibition by amphomycin
binding of antibiotic to UptA (in words) (UptA): peaks consistent with amphomycin binding to UptA; also recorded: bind to UptA with higher affinity than other cell-wall targeting antimicrobial peptides such as bacitracin and vancomycin
effect of antibiotic on UptA:C55-P complex (in words) (UptA:C55-P complex): peak intensities of the UptA:C55-P complex reduce with respect to an increase in the concentration of amphomycin; also recorded: induce dissociation of UptA:C55-P complexes; also recorded: bind directly to UptA and induce dissociation of the UptA:C55-P complex; also recorded: can directly inhibit UptA function by out-competing the substrate for the protein binding
effect of antibiotic on UptA:C55-P complex (in words) (UptA:C55-P complex; listed as Amphomycin): destabilizes the UptA:C55-P complex and sequesters C55-P
UptA:C55-P complex remaining at 10-fold molar excess of antibiotic (in words) (UptA:C55-P complex; 10-fold molar excess of amphomycin): little-to-no UptA:C55-P complexes remained
complex formation with free C55-P (in words) [2]: known propensity to form complexes with free C55-P molecules
